# In patent US5440016A, “Peptides of the formula (KFmoc) ZZZ and their uses” (priority 1993, dated 1995):
# Square brackets hold non-standard residues; d marks the D form. Peptide text beside a SMILES is read from it. * marks the point of attachment. Phe(4-NO2) = N[C@@H](Cc1ccc([N+](=O)[O-])cc1)C(=O)O; Met(O2) = CS(=O)(=O)CC[C@H](N)C(=O)O; Fmoc = O=C(OCC1c2ccccc2-c2ccccc21)*; Nle = CCCC[C@H](N)C(=O)O; Thz = O=C(O)[C@@H]1CSCN1; Nva = CCC[C@H](N)C(=O)O; Abu = CC[C@H](N)C(=O)O; Aib = CC(C)(N)C(=O)O
# Test system: Human red blood cells (RBCs)
# Assay: Hemolytic activity
# Assay type: cell-based
# Details: Tables 18-21
# Protocol: Each assay was carried out in 96-well culture tissue plates. Four wells per plate contain 125 μl of a non-peptide positive control (1% Triton in de-ionized water), and four wells per plate contain 125 μl of a control blank, phosphate buffered saline (PBS). The hemolytic peptide melittin was used as comparative control. The controls served to detect possible contamination and to calculate the percent hemolysis of each peptide. Human red blood cells (RBCs) were washed with PBS and centrifuged to separate them from the serum. The cells were then resuspended in PBS to a final suspension of 0.5% RBC. 125 μl of this suspension was added to the peptides and controls solution. The release of hemoglobin resulting from the cell lysis was determined by measuring the OD at 414 nm of 100 μl of the supernatant.
row,SMILES,HD50 (concentration necessary to lyse 50% of the cells)
1,CS(=O)(=O)CC[C@H](NC(=O)[C@H](CCCCN)NC(=O)[C@H](Cc1c[nH]c2ccccc12)NC(=O)[C@H](CCCCN)NC(=O)OCC1c2ccccc2-c2ccccc21)C(N)=O [(KFmoc)WK(MetO2)-NH2] (Fmoc-KWK[Met(O2)]-NH2),437 µg/mL
2,NCCCC[C@H](NC(=O)OCC1c2ccccc2-c2ccccc21)C(=O)N[C@@H](Cc1c[nH]c2ccccc12)C(=O)N[C@@H](CCCCN)C(=O)N[C@@H](Cc1ccc([N+](=O)[O-])cc1)C(N)=O [(KFmoc)WK(NO2 F)-NH2] (Fmoc-KWK[Phe(4-NO2)]-NH2),67 µg/mL
3,CCCC[C@H](NC(=O)[C@H](CCCCN)NC(=O)[C@H](Cc1c[nH]c2ccccc12)NC(=O)[C@H](CCCCN)NC(=O)OCC1c2ccccc2-c2ccccc21)C(N)=O [(KFmoc)WK(Nle)-NH2] (Fmoc-KWK[Nle]-NH2),91 µg/mL
4,CCC[C@H](NC(=O)[C@H](CCCCN)NC(=O)[C@H](Cc1c[nH]c2ccccc12)NC(=O)[C@H](CCCCN)NC(=O)OCC1c2ccccc2-c2ccccc21)C(N)=O [(KFmoc)WK(Nve)-NH2] (Fmoc-KWK[Nva]-NH2),98 µg/mL
5,NCCCC[C@H](NC(=O)OCC1c2ccccc2-c2ccccc21)C(=O)N[C@@H](Cc1c[nH]c2ccccc12)C(=O)N[C@@H](CCCCN)C(=O)N1CSC[C@H]1C(N)=O [(KFmoc)WK(Thiopro)-NH2] (Fmoc-KWK[Thz]-NH2),108 µg/mL
6,CC[C@H](NC(=O)[C@H](CCCCN)NC(=O)[C@H](Cc1c[nH]c2ccccc12)NC(=O)[C@H](CCCCN)NC(=O)OCC1c2ccccc2-c2ccccc21)C(N)=O [(KFmoc)WK(aABA)-NH2] (Fmoc-KWK[Abu]-NH2),449 µg/mL
7,CC(C)(NC(=O)[C@H](CCCCN)NC(=O)[C@H](Cc1c[nH]c2ccccc12)NC(=O)[C@H](CCCCN)NC(=O)OCC1c2ccccc2-c2ccccc21)C(N)=O [(KFmoc)WK(aAIB)-NH2] (Fmoc-KWK[Aib]-NH2),447 µg/mL
8,C[C@H](NC(=O)[C@H](CCCCN)NC(=O)[C@H](Cc1c[nH]c2ccccc12)NC(=O)[C@H](CCCCN)NC(=O)OCC1c2ccccc2-c2ccccc21)C(N)=O [(KFmoc)WKA-NH2] (Fmoc-KWKA-NH2),378 µg/mL
9,NCCCC[C@H](NC(=O)OCC1c2ccccc2-c2ccccc21)C(=O)N[C@@H](Cc1c[nH]c2ccccc12)C(=O)N[C@@H](CCCCN)C(=O)N[C@@H](CS)C(N)=O [(KFmoc)WKC-NH2] (Fmoc-KWKC-NH2),43 µg/mL
10,NCCCC[C@H](NC(=O)OCC1c2ccccc2-c2ccccc21)C(=O)N[C@@H](Cc1c[nH]c2ccccc12)C(=O)N[C@@H](CCCCN)C(=O)N[C@@H](Cc1ccccc1)C(N)=O [(KFmoc)WKF-NH2] (Fmoc-KWKF-NH2),105 µg/mL
11,NCCCC[C@H](NC(=O)OCC1c2ccccc2-c2ccccc21)C(=O)N[C@@H](Cc1c[nH]c2ccccc12)C(=O)N[C@@H](CCCCN)C(=O)NCC(N)=O [(KFmoc)WKG-NH2] (Fmoc-KWKG-NH2),449 µg/mL
12,NCCCC[C@H](NC(=O)OCC1c2ccccc2-c2ccccc21)C(=O)N[C@@H](Cc1c[nH]c2ccccc12)C(=O)N[C@@H](CCCCN)C(=O)N[C@@H](Cc1c[nH]cn1)C(N)=O [(KFmoc)WKH-NH2] (Fmoc-KWKH-NH2),312 µg/mL
13,CC[C@H](C)[C@H](NC(=O)[C@H](CCCCN)NC(=O)[C@H](Cc1c[nH]c2ccccc12)NC(=O)[C@H](CCCCN)NC(=O)OCC1c2ccccc2-c2ccccc21)C(N)=O [(KFmoc)WKI-NH2] (Fmoc-KWKI-NH2),141 µg/mL
14,NCCCC[C@H](NC(=O)[C@H](CCCCN)NC(=O)[C@H](Cc1c[nH]c2ccccc12)NC(=O)[C@H](CCCCN)NC(=O)OCC1c2ccccc2-c2ccccc21)C(N)=O [(KFmoc)WKK-NH2] (Fmoc-KWKK-NH2),469 µg/mL
